Measurements published in PMC3836994, “Killer Bee Molecules: Antimicrobial Peptides as Effector Molecules to Target Sporogonic Stages of Plasmodium” (PLoS Pathogens, 2013).
No end group written: not given here.

Columns and labels:
[1] = tested on: Anopheles gambiae Sua 4.0 cells; experiment: Sua 4.0 mosquito cell growth (cell counts); format: cell-based; settings: 25 µM AMP; for Average number of cells over 3 replicates, peptide: seeded 30×10^4/ml, mean of 3 experiments
Experimental: (§1) To establish potential effects of AMPs on mosquito cells, the An. gambiae Sua 4.0 cell line was used. This facilitated an initial high-throughput screening and provided insights into AMP toxicity, mode of action (lytic or other) and speed of action. Sua 4.0 cells were maintained at 27°C in Schneider's insect medium supplemented with 10% FBS (foetal bovine serum) in T25 culture flasks (Fisher, UK).
(§2) Each AMP was tested separately to establish if it affected cell viability and growth. […] Cells were maintained for 3, 6, 24 or 48 h, after which they were resuspended and a sub-sample from duplicate wells counted using a haemocytometer. To establish cell viability after 48 h (whether simply arrested in development or non-viable), resuspended cells were added to an equal volume of 5% erythrosin B vital dye and viable cells excluding the stain were counted. The viability of 100 cells in triplicate wells was recorded. Each AMP assay was performed in triplicate and included a negative control minus the peptide (5 µl of water alone added to the medium) and a further control of 5 µl of 10% SDS (sodium dodecyl sulphate) substituted for the AMP as this causes 100% cell lysis.

P. falciparum = experiment: Cultured P. falciparum gametocytes membrane-fed to An. gambiae (oocyst prevalence and intensity); format: in vivo, Plasmodium falciparum; settings: 50 µM; for Oocyst intensity (mean number of oocysts per gut, range in parentheses), peptide / Oocyst prevalence (oocyst positive mosquitoes), peptide: cultured gametocytes, An. gambiae
Experimental: P. falciparum NF54 gametocytes were produced through large-scale automated culture at the Pasteur Institute, Paris, [69]. Gametocytes were grown in 10 ml RPMI 1640 medium (Invitrogen), supplemented with 25 mM HEPES and L-glutamine, 10% heat-inactivated human serum and hypoxanthine (20 mg/L) under a constant gas supply (5% CO2, 1% O2, 94% N2). Fresh red blood cells (RBCs) were added to obtain a 7% haematocrit. Fourteen days after initiating the culture, gametocyte maturity was assessed on thin Giemsa-stained blood smears, and male gametocyte maturity verified by exflagellation tests. Gametocyte cultures were centrifuged for 5 min at 1500 rpm and the ∼500–600 µl pellet resuspended in fresh RBCs and AB human serum to give a final haematocrit of 40%.
Blood containing mature gametocytes (475 µl) was added to 25 µl of the test AMP (50 µM final concentration). Peptides were replaced by 25 µl of sterile deionized water for each control. The blood/parasite/peptide mixture was placed in a Hemotek membrane feeder, previously warmed to 37°C. For each feed, 70 to 100 nulliparous female An. gambiae mosquitoes were left to feed in the dark for 15 min and only fully engorged females were transferred to small cages and provided with 10% sucrose containing 0.05% PABA. After 8 days, 30 midguts were dissected and stained with bromo fluorescein for the detection of oocysts.

[2] = tested on: Anopheles gambiae Sua 4.0 cells; experiment: Sua 4.0 mosquito cell viability (erythrosin B exclusion); format: cell-based; design: dose or concentration left out as unconfirmed; settings: after 48 h culture; for Average viability of cells (3 replicates), peptide: erythrosin B exclusion, 100 cells in triplicate wells; for Reduction in cell viability: versus control
Experimental: as §1, §2

[3] = 3 hrs in culture, haemocytometer count of duplicate wells

Sequence	Reduction in cell number (compared to control) ([1]; 3 hrs in culture) [%]	Average number of cells over 3 replicates, peptide [1, 3] [mL⁻¹]	Reduction in cell number (compared to control) ([1]; 24 hrs in culture) [%]	Average number of cells over 3 replicates, peptide ([1]; 24 hrs in culture) [mL⁻¹]	Reduction in cell number (compared to control) ([1]; 48 hrs in culture) [%]	Average number of cells over 3 replicates, peptide ([1]; 48 hrs in culture) [mL⁻¹]	Oocyst intensity (mean number of oocysts per gut, range in parentheses), peptide (P. falciparum; Replicate 1)	Oocyst prevalence (oocyst positive mosquitoes), peptide (P. falciparum; Replicate 1, dissected after 8 days)	Oocyst intensity (mean number of oocysts per gut, range in parentheses), peptide (P. falciparum; Replicate 2)	Oocyst prevalence (oocyst positive mosquitoes), peptide (P. falciparum; Replicate 2)	Oocyst intensity (mean number of oocysts per gut, range in parentheses), peptide (P. falciparum; Replicate 3)	Oocyst prevalence (oocyst positive mosquitoes), peptide (P. falciparum; Replicate 3)	Average reduction of intensity of infection (P. falciparum; over three replicates) [%]	Average reduction of prevalence (P. falciparum; over three replicates) [%]	Average viability of cells (3 replicates), peptide [2] [%]	Reduction in cell viability [2] [%]	Reduction in cell number (compared to control) ([1]; 24 hrs in culture, listed as Vida3 dimer) [%]	Average viability of cells (3 replicates), peptide ([2]; listed as Vida3 dimer)
AGYLLGKINLKALAALAKKILGGAGYLLGKINLKALAALAKKIL [TP10 dimer, TP10 (dimer)]	20	240000	42	250000	58	260000	<1 (0–2)	17% (30)	0	0% (30)	2 (0–14)	37% (30)	82	60	1	99	–	–
KFPKFRRGIPFLFVGPSGKFPKFRRGIPFLFV [Vida 3 dimer]	7	280000	62	170000	72	190000	–	–	–	–	–	–	–	–	58	38	62	above 50%
